The record followed here is PubChem BioAssay AID602120 (Johns Hopkins Ion Channel Center, 2011).

In the assay the target is Potassium voltage-gated channel subfamily KQT member 1 (Homo sapiens) (UniProt P51787). The assay is described as follows: PubChem AID 602120. To be noted: KCNQ1-CHO cells, manual whole-cell patch clamp current; at 0.3 µM; stronger effect = higher value.
Chain of Potassium voltage-gated channel subfamily KQT member 1 (Homo sapiens) (P51787 whole entry, looked up): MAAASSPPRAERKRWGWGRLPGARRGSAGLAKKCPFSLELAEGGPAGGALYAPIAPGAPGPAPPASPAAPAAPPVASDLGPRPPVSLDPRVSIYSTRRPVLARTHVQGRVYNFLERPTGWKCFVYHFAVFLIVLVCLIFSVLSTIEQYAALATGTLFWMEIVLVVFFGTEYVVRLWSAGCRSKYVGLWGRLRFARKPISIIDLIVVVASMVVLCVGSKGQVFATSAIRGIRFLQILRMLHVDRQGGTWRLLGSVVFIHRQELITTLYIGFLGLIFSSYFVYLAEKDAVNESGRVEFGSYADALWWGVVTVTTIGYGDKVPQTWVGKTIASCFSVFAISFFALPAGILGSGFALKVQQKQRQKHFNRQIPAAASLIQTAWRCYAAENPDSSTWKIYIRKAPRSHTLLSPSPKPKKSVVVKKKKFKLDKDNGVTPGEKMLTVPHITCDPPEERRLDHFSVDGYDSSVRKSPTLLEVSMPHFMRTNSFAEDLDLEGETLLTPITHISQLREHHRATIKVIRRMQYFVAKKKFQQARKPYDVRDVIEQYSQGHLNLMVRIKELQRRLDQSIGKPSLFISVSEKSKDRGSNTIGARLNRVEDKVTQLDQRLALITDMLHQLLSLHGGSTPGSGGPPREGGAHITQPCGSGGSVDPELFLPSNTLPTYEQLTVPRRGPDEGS

For `COc1ccc(-c2csc(NC(=O)[C@H]3CCCCN3S(=O)(=O)c3ccc(C)cc3)n2)cc1`, the fold activation is 46.9.
